Reference: the supplement of paper PMC10307832

The cell lines below were run with Cn1cnc2c(F)c(Nc3ccc(Br)cc3Cl)c(C(=O)NOCCO)cc21 [Selumetinib] + C[C@@H](Oc1cc(-c2cnn(C3CCNCC3)c2)cnc1N)c1c(Cl)ccc(F)c1Cl [Crizotinib] (partner 1 µM) (assay: relative viability (nuclei count vs DMSO), 5 days (fraction); higher = more cells survive). Settings: first compound 0.02 µM.
How it was run: (§1)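 Lung cancer cell lines were pin-tool dosed in 1536-well plates on the day after seeding, with either a lone drug or a fixed anchor-drug dose plus five library-drug doses (not always all listed) in √10 steps. Nuclei were counted on 4× images after 5 days. Relative viability is the ratio of treated-well to vehicle-well nuclei counts, with each value a median of duplicate plates.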
Work on PC-14 yielded a relative viability of 0.867. With NCI-H1666 the relative viability was 0.956. Cell Line EBC-1 has a relative viability of 0.179. Cell Line NCI-H1755 has a relative viability of 0.895. NCI-H2023 was tested, and the relative viability was 0.649. EPLC-272H was tested, and the relative viability was 0.877. With LCLC-97TM1 the relative viability was 0.527. In the case of PC-3 [JPC-3], the relative viability is reported as 0.98. With LOU-NH91 the relative viability was 0.709. Cell Line NCI-H647 has a relative viability of 1.14. NCI-H23 gave a relative viability of 0.583. EMC-BAC-2 gave a relative viability of 0.754. NCI-H2126 gave a relative viability of 1.01. Calu-6 was tested, and the relative viability was 0.804. Work on HCC-44 yielded a relative viability of 0.883. NCI-H1734 showed a relative viability of 0.775. In the case of NCI-H650, the relative viability is reported as 0.793. For LK-2, the relative viability was 0.239. For NCI-H2228, the relative viability was 0.527. SK-MES-1 showed a relative viability of 1. In the case of NCI-H2170, the relative viability is reported as 1.17. For IA-LM, the relative viability was 0.662. A549 showed a relative viability of 0.715. For NCI-H1299, the relative viability was 1.06. CAL-12T showed a relative viability of 0.621. NCI-H1703 showed a relative viability of 0.664. Cell Line NCI-H1563 has a relative viability of 0.858. In the case of NCI-H1944, the relative viability is reported as 1.03. ABC-1 showed a relative viability of 1.57. In the case of NCI-H358, the relative viability is reported as 0.467.

Same assay, conditions: first compound 0.06325 µM
PC-14 showed a relative viability of 0.814. Cell Line NCI-H1666 has a relative viability of 0.791. EBC-1 showed a relative viability of 0.16. Cell Line NCI-H1755 has a relative viability of 0.765. Work on NCI-H2023 yielded a relative viability of 0.533. EPLC-272H was tested, and the relative viability was 0.846. Cell Line LCLC-97TM1 has a relative viability of 0.496. PC-3 [JPC-3] was tested, and the relative viability was 0.904. LOU-NH91 showed a relative viability of 0.715. Work on NCI-H647 yielded a relative viability of 0.942. NCI-H23 showed a relative viability of 0.47. Work on EMC-BAC-2 yielded a relative viability of 0.719. NCI-H2126 showed a relative viability of 1. Calu-6 was tested, and the relative viability was 0.603. In the case of HCC-44, the relative viability is reported as 0.753. In the case of NCI-H1734, the relative viability is reported as 0.52. With NCI-H650 the relative viability was 0.593. Work on LK-2 yielded a relative viability of 0.234. NCI-H2228 gave a relative viability of 0.595. Cell Line SK-MES-1 has a relative viability of 0.905. NCI-H2170 showed a relative viability of 1.11. IA-LM was tested, and the relative viability was 0.54. A549 was tested, and the relative viability was 0.656. Cell Line NCI-H1299 has a relative viability of 0.961. Work on CAL-12T yielded a relative viability of 0.573. With NCI-H1703 the relative viability was 0.653. NCI-H1563 was tested, and the relative viability was 0.825. NCI-H1944 was tested, and the relative viability was 0.887. Work on ABC-1 yielded a relative viability of 1.03. NCI-H358 showed a relative viability of 0.368.

Same assay, conditions: first compound 0.2 µM
PC-14 was tested, and the relative viability was 0.961. Work on NCI-H1666 yielded a relative viability of 0.829. EBC-1 showed a relative viability of 0.175. NCI-H1755 showed a relative viability of 0.802. Work on NCI-H2023 yielded a relative viability of 0.431. For EPLC-272H, the relative viability was 0.707. Cell Line LCLC-97TM1 has a relative viability of 0.467. PC-3 [JPC-3] showed a relative viability of 0.905. With LOU-NH91 the relative viability was 0.683. For NCI-H647, the relative viability was 0.926. Work on NCI-H23 yielded a relative viability of 0.328. Cell Line EMC-BAC-2 has a relative viability of 0.778. NCI-H2126 showed a relative viability of 0.913. Cell Line Calu-6 has a relative viability of 0.51. With HCC-44 the relative viability was 0.876. Work on NCI-H1734 yielded a relative viability of 0.591. NCI-H650 showed a relative viability of 0.575. With LK-2 the relative viability was 0.229. NCI-H2228 showed a relative viability of 0.351. SK-MES-1 gave a relative viability of 0.974. NCI-H2170 was tested, and the relative viability was 1.03. For IA-LM, the relative viability was 0.314. Cell Line A549 has a relative viability of 0.495. Work on NCI-H1299 yielded a relative viability of 0.939. CAL-12T gave a relative viability of 0.704. In the case of NCI-H1703, the relative viability is reported as 0.647. With NCI-H1563 the relative viability was 0.865. Work on NCI-H1944 yielded a relative viability of 0.497. Work on ABC-1 yielded a relative viability of 1.11. With NCI-H358 the relative viability was 0.326.

Same assay, conditions: first compound 0.6325 µM
In the case of PC-14, the relative viability is reported as 0.949. With NCI-H1666 the relative viability was 0.614. With EBC-1 the relative viability was 0.147. NCI-H1755 gave a relative viability of 0.842. Cell Line NCI-H2023 has a relative viability of 0.503. In the case of EPLC-272H, the relative viability is reported as 0.731. LCLC-97TM1 showed a relative viability of 0.504. In the case of PC-3 [JPC-3], the relative viability is reported as 0.774. Work on LOU-NH91 yielded a relative viability of 0.677. NCI-H647 was tested, and the relative viability was 0.99. NCI-H23 was tested, and the relative viability was 0.406. With EMC-BAC-2 the relative viability was 0.834. NCI-H2126 was tested, and the relative viability was 0.887. Cell Line Calu-6 has a relative viability of 0.343. Cell Line HCC-44 has a relative viability of 0.876. NCI-H1734 was tested, and the relative viability was 0.574. Cell Line NCI-H650 has a relative viability of 0.67. Cell Line LK-2 has a relative viability of 0.262. NCI-H2228 showed a relative viability of 0.413. Cell Line SK-MES-1 has a relative viability of 0.741. In the case of NCI-H2170, the relative viability is reported as 1.15. Work on IA-LM yielded a relative viability of 0.335. A549 showed a relative viability of 0.402. NCI-H1299 showed a relative viability of 0.84. CAL-12T gave a relative viability of 0.597. In the case of NCI-H1703, the relative viability is reported as 0.616. Cell Line NCI-H1563 has a relative viability of 0.781. For NCI-H1944, the relative viability was 0.71. Cell Line ABC-1 has a relative viability of 1.12. NCI-H358 showed a relative viability of 0.319.

What follows are cell lines tested with CC1(C)CCC(CN2CCN(c3ccc(C(=O)NS(=O)(=O)c4ccc(NCC5CCOCC5)c([N+](=O)[O-])c4)c(Oc4cnc5[nH]ccc5c4)c3)CC2)=C(c2ccc(Cl)cc2)C1 [Venetoclax] + CC(=O)Nc1cccc(-n2c(=O)n(C3CC3)c(=O)c3c(Nc4ccc(I)cc4F)n(C)c(=O)c(C)c32)c1 [Trametinib] (partner 0.02 µM) in the same assay as above. Settings: first compound 0.01 µM.
How it was run: as §1
With NCI-H522 the relative viability was 0.716. For PC-14, the relative viability was 0.679. In the case of NCI-H1666, the relative viability is reported as 0.764. Cell Line NCI-H1755 has a relative viability of 0.713. NCI-H2023 was tested, and the relative viability was 0.526. With EPLC-272H the relative viability was 0.287. LCLC-97TM1 gave a relative viability of 0.217. With PC-3 [JPC-3] the relative viability was 0.656.
